Source: PMC4467547 (Journal of Medicinal Chemistry, 2015)
Substitutions are numbered along the chain they refer to.

What was measured:
HH (CTCL) cells = assay: MTS cell proliferation assay; type: cell-based
WT HDAC8 (Zn2+) = target: T1, WT HDAC8 (Zn2+) (Homo sapiens, UniProt Q9BY41); assay: HDAC8 time-course inhibition; type: biochemical
T1 sequence (Q9BY41 1-377): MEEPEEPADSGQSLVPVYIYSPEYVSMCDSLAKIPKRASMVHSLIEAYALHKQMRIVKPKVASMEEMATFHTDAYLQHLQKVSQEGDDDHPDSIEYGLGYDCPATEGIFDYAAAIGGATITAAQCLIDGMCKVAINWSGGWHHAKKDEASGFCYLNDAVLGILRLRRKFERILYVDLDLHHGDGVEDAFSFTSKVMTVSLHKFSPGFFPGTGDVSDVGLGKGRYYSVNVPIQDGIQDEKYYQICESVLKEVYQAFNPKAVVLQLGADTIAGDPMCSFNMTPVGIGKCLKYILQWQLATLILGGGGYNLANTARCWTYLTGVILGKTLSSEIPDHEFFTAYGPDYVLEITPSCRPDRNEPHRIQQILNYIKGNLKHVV

reactivity with GSH = type: physicochemical; conditions: GSH 2 mM, 2 equiv, 50 mM HEPES pH 7.4, 2 h at 37 °C
human plasma stability = type: in vitro ADME; conditions: 1 h, 37 °C
C153A HDAC8 = target: T2, C153A HDAC8 (Homo sapiens, UniProt Q9BY41, C153A); assay: HDAC8 time-course inhibition; conditions: SAHA 0-8 μM, SAHA-OBn 0-10 μM (Figure S8)
T2 sequence (Q9BY41 1-377 C153A): T1 sequence (Q9BY41 1-377) with C153A

[1] = stability in the presence of assay components BSA or trypsin; type: physicochemical; conditions: BSA (5 mg/mL) or trypsin (5 mg/mL), 37 °C, 2 h; data not shown
[2] = aqueous stability under simulated physiological conditions; type: physicochemical; conditions: 50 mM HEPES, pH 7.4, 37 °C, 24 h
[3] = system: tubulin acetylation in Jurkat cells; assay: western blot analysis of tubulin acetylation; type: cell-based; conditions: 6 and 20 μM, 4 h
[4] = system: tubulin acetylation in HH cells; assay: western blot analysis of tubulin acetylation; type: cell-based; conditions: 6 and 20 μM, 4 h

Row | inhibition of HDAC8 activity (in words) (WT HDAC8 (Zn2+); inhibitor 2–10 μM) | reactivity with GSH (in words) (reactivity with GSH) | maximal rate constant for inactivation (WT HDAC8 (Zn2+); at saturating SAHA-TAP) [s^–1] | time of activity loss on preincubation of enzyme with inhibitor (WT HDAC8 (Zn2+); preincubation, data not shown) [h] | stable in the presence of assay components [1] [%] | stable to hydrolysis in the absence of thiols [2] [%] | Compound | effect on cell proliferation (in words) (HH (CTCL) cells; all cells studied (HH, Jurkat, NIH/3T3)) | inhibition of HDAC8 (WT HDAC8 (Zn2+)) [%] | percent parent compound remaining (human plasma stability) | inhibition of C153A HDAC8 (in words) (C153A HDAC8) | less potent than SAHA in cells (HH (CTCL) cells; HH and Jurkat cells) | tubulin acetylation (western blot) [3] | tubulin acetylation (western blot) [4]
1 | does not inhibit | no change in the HPLC chromatogram |  |  |  |  | O=C(CCCCCCC(=O)Nc1ccccc1)NOCc1ccccc1 [SAHA-OBn] | unaffected |  |  |  |  |  | 
2 |  |  |  |  |  |  | O=C(CCCCCCC(=O)Nc1ccccc1)NO [SAHA, suberoylanilide hydroxamic acid, reference compound] |  | > 90 | ~60% | susceptible to inhibition |  |  | 
3 |  | reacts rapidly with GSH | 0.0013 | ≤ 0.5 | > 95 | > 97 | CC1=C(C)C(=O)C(CONC(=O)CCCCCCC(=O)Nc2ccccc2)=C(C)C1=O [SAHA-TAP] |  |  | Approximately 72% |  | 3–4 fold | increased tubulin acetylation | increased tubulin acetylation
